Measured values: ChEMBL document CHEMBL2029256, “Structure-activity relationships of trimethoxybenzyl piperazine N-type calcium channel inhibitors” (Bioorg Med Chem Lett, 2012)

Assays:
[1] = Inhibition of rat N-type calcium channel alpha1B/alpha2delta-1/beta1b expressed in HEK293 cells by whole cell patch clamp analysis; type: cell-based
Rattus norvegicus [2] = species on record: Rattus norvegicus; experiment: animal or person; settings: ip, read-out: INH
Rattus norvegicus [3] = experiment: Antiallodynic activity in rat chung model of neuropathic pain assessed as inhibition of nerve ligation-induced thermal hyperalgesia at 30 mg/kg, po measured at 30 mins interval for 3 hrs relative to control
Rattus norvegicus [4] = experiment: Antiallodynic activity in rat chung model of neuropathic pain assessed as paw withdrawal at 30 mg/kg, po measured at 30 mins interval for 3 hrs relative to control
[5] = molecular target: Voltage-gated inwardly rectifying potassium channel KCNH2 (Homo sapiens, UniProt Q12809); experiment: Inhibition of human Erg expressed in HEK293 cells by whole cell patch clamp analysis
Chain of Voltage-gated inwardly rectifying potassium channel KCNH2 (Q12809 whole entry): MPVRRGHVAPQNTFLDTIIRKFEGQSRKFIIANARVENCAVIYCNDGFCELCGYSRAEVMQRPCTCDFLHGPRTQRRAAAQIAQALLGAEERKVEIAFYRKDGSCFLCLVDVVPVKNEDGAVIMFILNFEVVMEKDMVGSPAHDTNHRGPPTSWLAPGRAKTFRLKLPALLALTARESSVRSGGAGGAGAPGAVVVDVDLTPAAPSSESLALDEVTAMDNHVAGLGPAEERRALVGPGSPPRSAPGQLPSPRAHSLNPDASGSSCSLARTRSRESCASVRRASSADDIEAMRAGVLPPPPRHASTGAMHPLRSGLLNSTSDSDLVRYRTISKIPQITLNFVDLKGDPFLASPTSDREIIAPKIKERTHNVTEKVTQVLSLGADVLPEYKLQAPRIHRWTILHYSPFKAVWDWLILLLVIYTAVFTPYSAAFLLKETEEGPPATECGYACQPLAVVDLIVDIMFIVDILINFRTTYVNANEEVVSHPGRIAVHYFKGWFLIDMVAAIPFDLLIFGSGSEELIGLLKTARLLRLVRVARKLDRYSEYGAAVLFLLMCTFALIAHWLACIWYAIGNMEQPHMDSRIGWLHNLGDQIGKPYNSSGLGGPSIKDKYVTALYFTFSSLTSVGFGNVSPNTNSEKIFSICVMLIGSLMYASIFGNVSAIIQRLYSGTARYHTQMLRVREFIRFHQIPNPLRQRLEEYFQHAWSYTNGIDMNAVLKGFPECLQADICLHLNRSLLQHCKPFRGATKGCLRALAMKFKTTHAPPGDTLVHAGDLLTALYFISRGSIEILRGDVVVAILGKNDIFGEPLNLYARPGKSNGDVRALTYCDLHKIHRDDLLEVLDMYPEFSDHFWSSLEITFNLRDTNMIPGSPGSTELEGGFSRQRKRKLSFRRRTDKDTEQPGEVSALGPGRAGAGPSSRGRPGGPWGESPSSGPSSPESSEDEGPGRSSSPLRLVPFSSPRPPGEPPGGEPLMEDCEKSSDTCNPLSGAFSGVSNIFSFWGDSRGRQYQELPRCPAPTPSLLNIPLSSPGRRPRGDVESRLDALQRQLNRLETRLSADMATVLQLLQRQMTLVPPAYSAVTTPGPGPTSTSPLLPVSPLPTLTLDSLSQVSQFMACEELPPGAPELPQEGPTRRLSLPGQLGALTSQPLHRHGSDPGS

[6] = Inhibition of rat L-type calcium channel alpha1C/alpha2delta-1/beta1b expressed in HEK293 cells by whole cell patch clamp analysis; type: cell-based
Rattus norvegicus [7] = species on record: Rattus norvegicus; experiment: animal or person; settings: ip, read-out: INH; remark: listed apart in the source
Rattus norvegicus [8] = species on record: Rattus norvegicus; experiment: animal or person; settings: ip, read-out: INH; remark: listed apart in the source

IC50 [1] | Compound | further results
210 nM | O=C(NCC1CCN(C(=O)CCCCC(c2ccc(F)cc2)c2ccc(F)cc2)C1)c1cc(C(F)(F)F)cc(C(F)(F)F)c1 (stereo not drawn) | –
1100 nM | Fc1ccc(C(CCCCCN2CCN(Cc3cc(C(F)(F)F)cc(C(F)(F)F)c3)CC2)c2ccc(F)cc2)cc1 | –
3200 nM | COc1cc(C(=O)NCC2CCN(C(=O)CCCCC(c3ccccc3)C3CCN(C)CC3)C2)cc(OC)c1OC (stereo not drawn) | –
90 nM | COc1c(C(C)(C)C)cc(C(=O)N2CCN(C(=O)CCCCC(c3ccc(F)cc3)c3ccc(F)cc3)CC2)cc1C(C)(C)C | inhibition in vivo at 30 mg/kg (Rattus norvegicus [2]): 79%; Emax at 30 mg/kg (Rattus norvegicus [3]): 54.2%; Emax at 30 mg/kg (Rattus norvegicus [4]): 1.9%
90 nM | COc1c(C(C)(C)C)cc(CN2CCN(CCCCCC(c3ccc(F)cc3)c3ccc(F)cc3)CC2)cc1C(C)(C)C | –
120 nM | CC(C)(C)c1cc(C(=O)NC[C@@H]2CCN(C(=O)CCCCC(c3ccc(F)cc3)c3ccc(F)cc3)C2)cc(C(C)(C)C)c1 | –
150 nM | CC(C)(C)c1cc(C(=O)N2CCN(CCCCCC(c3ccc(F)cc3)c3ccc(F)cc3)CC2)cc(C(C)(C)C)c1O | –
4 nM | CC(C)(C)c1cc(CN2CCC(CNCCCCCC(c3ccc(F)cc3)c3ccc(F)cc3)C2)cc(C(C)(C)C)c1O (stereo not drawn) | –
150 nM | O=C(NCC1CCN(CCCCCC(c2ccc(F)cc2)c2ccc(F)cc2)C1)c1cc(C(F)(F)F)cc(C(F)(F)F)c1 (stereo not drawn) | –
840 nM | COc1cc(C(=O)N2CCC(CNC(=O)CCCCC(c3ccc(F)cc3)c3ccc(F)cc3)C2)cc(OC)c1OC (stereo not drawn) | IC50 [5]: 750 nM
30 nM | CC(C)(C)c1cc(CNCC2CCN(CCCCCC(c3ccc(F)cc3)c3ccc(F)cc3)C2)cc(C(C)(C)C)c1 (stereo not drawn) | IC50 [5]: 460 nM
110 nM | COc1c(C(C)(C)C)cc(C(=O)N2CCN(CCCCCC(c3ccc(F)cc3)c3ccc(F)cc3)CC2)cc1C(C)(C)C | –
300 nM | CC(C)(C)c1cc(C(=O)N2CCN(C(=O)CCCCC(c3ccc(F)cc3)c3ccc(F)cc3)CC2)cc(C(C)(C)C)c1 | –
510 nM | O=C(CCCCC(c1ccc(F)cc1)c1ccc(F)cc1)N1CCN(C(=O)c2cc(C(F)(F)F)cc(C(F)(F)F)c2)CC1 | –
180 nM | CC(C)(C)c1cc(CN2CCN(C(=O)CCCCC(c3ccc(F)cc3)c3ccc(F)cc3)CC2)cc(C(C)(C)C)c1O | –
280 nM | COc1cc(C(=O)NCC2CCN(CCCCCC(c3ccc(F)cc3)c3ccc(F)cc3)C2)cc(OC)c1OC (stereo not drawn) | –
600 nM | COc1cc(C(=O)N2CCN(C(=O)CCCCC(c3ccc(F)cc3)c3ccc(F)cc3)CC2)cc(OC)c1O | –
750 nM | O=C(NCC1CCN(C(=O)CCCCC(c2ccc(F)cc2)c2ccc(F)cc2)C1)c1cc(F)cc(C(F)(F)F)c1 (stereo not drawn) | –
40 nM | COc1c(C(C)(C)C)cc(C(=O)N2CCN(C(=O)CCCCC(c3ccc(F)cc3)c3ccc(F)cc3)C[C@@H]2C)cc1C(C)(C)C | IC50 [6]: 144 µM; inhibition in vivo at 30 mg/kg (Rattus norvegicus [2]): 79%; inhibition in vivo at 30 mg/kg (Rattus norvegicus [7]): 61%; inhibition in vivo at 30 mg/kg (Rattus norvegicus [8]): 50%; Emax at 30 mg/kg (Rattus norvegicus [3]): 85.8%; Emax at 30 mg/kg (Rattus norvegicus [4]): 31.7%
140 nM | CC(C)(C)c1cc(CN2CCN(CCCCCC(c3ccc(F)cc3)c3ccc(F)cc3)CC2)cc(C(C)(C)C)c1 | –
110 nM | CC(C)(C)c1cc(C(=O)NCC2CCN(C(=O)CCCCC(c3ccc(F)cc3)c3ccc(F)cc3)C2)cc(C(C)(C)C)c1 (stereo not drawn) | –

The next lines start with the compound.

Compound | IC50 [1] | further results
COc1c(C(C)(C)C)cc(C(=O)NC[C@H]2CCN(C(=O)CCCCC(c3ccc(F)cc3)c3ccc(F)cc3)C2)cc1C(C)(C)C | 150 nM | –
O=C(NC[C@H]1CCN(C(=O)CCCCC(c2ccc(F)cc2)c2ccc(F)cc2)C1)c1cc(C(F)(F)F)cc(C(F)(F)F)c1 | 100 nM | –
COc1c(C(C)(C)C)cc(CN2CCN(C(=O)CCCCC(c3ccc(F)cc3)c3ccc(F)cc3)CC2)cc1C(C)(C)C | 100 nM | –
COc1cc(CNCC2CCN(CCCCCC(c3ccc(F)cc3)c3ccc(F)cc3)C2)cc(OC)c1OC (stereo not drawn) | 60 nM | –
COc1c(C)cc(C(=O)NCC2CCN(C(=O)CCCCC(c3ccccc3)C3CCN(C)CC3)C2)cc1C (stereo not drawn) | 100 nM | –
COc1c(C(C)(C)C)cc(C(=O)N2CCN(C(=O)CCCCC(c3ccc(F)cc3)c3ccc(F)cc3)[C@@H](C)C2)cc1C(C)(C)C | 10 nM | –
O=C(NC[C@@H]1CCN(C(=O)CCCCC(c2ccc(F)cc2)c2ccc(F)cc2)C1)c1cc(C(F)(F)F)cc(C(F)(F)F)c1 | 90 nM | –
COc1cc(CN2CCC(CNCCCCCC(c3ccc(F)cc3)c3ccc(F)cc3)C2)cc(OC)c1OC (stereo not drawn) | 60 nM | IC50 [5]: 100 nM
COc1c(C(C)(C)C)cc(C(=O)NCC2CCN(C(=O)CCCCC(c3ccc(F)cc3)c3ccc(F)cc3)C2)cc1C(C)(C)C (stereo not drawn) | 40 nM | –
CN1CCC(C(CCCCC(=O)N2CCC(CNC(=O)c3cc(Cl)cc(Cl)c3)C2)c2ccccc2)CC1 (stereo not drawn) | 880 nM | –
CC(C)(C)c1cc(C(=O)NC[C@H]2CCN(C(=O)CCCCC(c3ccc(F)cc3)c3ccc(F)cc3)C2)cc(C(C)(C)C)c1 | 160 nM | –
CC(C)(C)c1cc(C(=O)N2CCN(C(=O)CCCCC(c3ccc(F)cc3)c3ccc(F)cc3)CC2)cc(C(C)(C)C)c1O | 220 nM | –
COc1c(C(C)(C)C)cc(CN2CCC(CNCCCCCC(c3ccc(F)cc3)c3ccc(F)cc3)C2)cc1C(C)(C)C (stereo not drawn) | 32 nM | –
CC(C)(C)c1cc(CN2CCN(CCCCCC(c3ccc(F)cc3)c3ccc(F)cc3)CC2)cc(C(C)(C)C)c1O | 40 nM | IC50 [5]: 100 nM
COc1c(C(C)(C)C)cc(C(=O)N2CCC(CNC(=O)CCCCC(c3ccc(F)cc3)c3ccc(F)cc3)C2)cc1C(C)(C)C (stereo not drawn) | 1900 nM | –
CC(C)(C)c1cc(CNCC2CCN(CCCCCC(c3ccc(F)cc3)c3ccc(F)cc3)C2)cc(C(C)(C)C)c1O (stereo not drawn) | 50 nM | –
COc1cc(CN2CCN(CCCCCC(c3ccc(F)cc3)c3ccc(F)cc3)CC2)cc(OC)c1O | 400 nM | –
COc1cc(CN2CCN(CCCCCC(c3ccc(F)cc3)c3ccc(F)cc3)CC2)cc(OC)c1OC | – | IC50 [5]: 400 nM
COc1c(C(C)C)cc(C(=O)NCC2CCN(C(=O)CCCCC(c3ccccc3)C3CCN(C)CC3)C2)cc1C(C)C (stereo not drawn) | 1900 nM | –
